{"source": "paper PMC6778019", "about": "(Contraception, 2019)", "key": {"[1]": {"test": "Steady-state pharmacokinetics of LNG and EE from day 21 of a COC cycle", "type": "in vivo, HIV-positive women", "settings": "for AUClast Change (%) / AUCτ Change (%) / CL Change (%) / Cmax Change (%) / Cmin Change (%) / T1/2 Change (%) / Tmax Change (%) / Vss Change (%): Ritonavir arm vs control arm; for concentration at 24 h: oral, concentration 24 h after the last dose; for concentration at 24 h / Cmax / AUC: mean±SD; for Cmax: last dose of the cycle; for AUC: LNG AUCτ, AUC 24 h of the last dose of the 21-day cycle"}, "[2]": {"settings": "cited from earlier work; for EE AUC / LNG AUC: COC EE 30 mcg / norgestrel 300 mcg"}, "[3]": {"settings": "cited from earlier work"}, "[4]": {"settings": "female, human, serum, po, T1/2, Ritonavir arm, half-life by NCA, median"}, "[5]": {"settings": "COC users taking protease inhibitors"}}, "note": "Like-named read-outs stand apart in the source and are kept apart here."}
{"smiles": "C#C[C@]1(O)CC[C@H]2[C@@H]3CCc4cc(O)ccc4[C@H]3CC[C@@]21C", "note": "[EE, ethinyl estradiol]", "values": [{"measurement": "AUClast Change (%)", "setting": "[1]", "value": 18.2, "unit": "%"}, {"measurement": "AUCτ Change (%)", "setting": "[1]", "value": 21.8, "unit": "%"}, {"measurement": "CL Change (%)", "setting": "[1]", "value": "−15.1", "unit": "%"}, {"measurement": "Cmax Change (%)", "setting": "[1]", "value": 33.7, "unit": "%"}, {"measurement": "Cmin Change (%)", "setting": "[1]", "value": 8.5, "unit": "%"}, {"measurement": "T1/2 Change (%)", "setting": "[1]", "value": 10.5, "unit": "%"}, {"measurement": "Tmax Change (%)", "setting": "[1]", "value": 0.0, "unit": "%"}, {"measurement": "Vss Change (%)", "setting": "[1]", "value": "−24.1", "unit": "%"}, {"measurement": "Tmax", "setting": "[1]; Ritonavir arm, median (95% Confidence interval)", "value": "1.0 (1.0,2.9) h"}, {"measurement": "Vss", "setting": "[1]; Ritonavir arm, volume at steady state by NCA, median (95% Confidence interval)", "value": "475 (370,671) L"}, {"measurement": "EE pharmacokinetic profiles, ritonavir vs control", "setting": "[1]; comparison between groups", "value": "not different between groups"}, {"measurement": "concentration at 24 h", "setting": "[1]; female, human, serum, EE Cmin, Control arm (n=10)", "value": "0.0492 ± 0.0141", "unit": "ng/mL"}, {"measurement": "concentration at 24 h", "setting": "[1]; female, human, serum, EE Cmin, Ritonavir arm", "value": "0.0533 ± 0.0147", "unit": "ng/mL"}, {"measurement": "Tmax", "setting": "[1]; female, human, serum, po", "value": 1, "unit": "h"}, {"measurement": "Cmax", "setting": "[1]; female, human, serum, po, EE Cmax, Control arm (n=10)", "value": "0.163 ± 0.0438", "unit": "ng/mL"}, {"measurement": "half-life", "setting": "[1]; female, human, serum, po, T1/2, Control arm (n=10), half-life by NCA, median", "value": 28.4, "unit": "h"}, {"measurement": "half-life", "setting": "[1]; [4]", "value": 31.3, "unit": "h"}, {"measurement": "EE AUC", "setting": "[2]; women not taking nevirapine", "value": 1457, "unit": "ng·mL/h"}, {"measurement": "EE AUC", "setting": "[2]; women taking nevirapine", "value": 1384, "unit": "ng·mL/h"}]}
{"smiles": "C#CC1(O)CC[C@H]2[C@@H]3CCC4=CC(=O)CC[C@@H]4[C@H]3CC[C@@]21CC", "note": "(stereo partly drawn) [norgestrel]", "values": [{"measurement": "increase in norgestrel AUC", "setting": "[2]; women taking ARV vs not taking ARV medication", "value": "approximately 30%"}]}
{"smiles": "C#C[C@]1(O)CC[C@H]2[C@@H]3CCC4=CC(=O)CC[C@@H]4[C@H]3CC[C@@]21CC", "note": "[LNG, levonorgestrel]", "values": [{"measurement": "AUClast Change (%)", "setting": "[1]", "value": 32.0, "unit": "%"}, {"measurement": "AUCτ Change (%)", "setting": "[1]", "value": 32.6, "unit": "%"}, {"measurement": "CL Change (%)", "setting": "[1]", "value": "−16.7", "unit": "%"}, {"measurement": "Cmax Change (%)", "setting": "[1]", "value": 27.0, "unit": "%"}, {"measurement": "Cmin Change (%)", "setting": "[1]", "value": 34.4, "unit": "%"}, {"measurement": "T1/2 Change (%)", "setting": "[1]", "value": 8.2, "unit": "%"}, {"measurement": "Tmax Change (%)", "setting": "[1]", "value": 33.3, "unit": "%"}, {"measurement": "Vss Change (%)", "setting": "[1]", "value": "−13.2", "unit": "%"}, {"measurement": "half-life", "setting": "[1]; female, human, in vivo, po", "value": 42.6, "unit": "h"}, {"measurement": "concentration at 24 h", "setting": "[1]; female, human, serum, LNG Cmin, Control arm (n=10)", "value": "3.7 ± 1.29", "unit": "ng/mL"}, {"measurement": "concentration at 24 h", "setting": "[1]; female, human, serum, LNG Cmin, Ritonavir arm (n=5)", "value": "4.97 ± 1.15", "unit": "ng/mL"}, {"measurement": "AUC", "setting": "[1]; female, human, serum, po, Control arm (n=10)", "value": "113 ± 37", "unit": "ng·h/mL"}, {"measurement": "AUC", "setting": "[1]; female, human, serum, po, Ritonavir arm (n=5)", "value": "150 ± 28", "unit": "ng·h/mL"}, {"measurement": "Cmax", "setting": "[1]; female, human, serum, po, LNG Cmax, Control arm (n=10)", "value": "7.62 ± 2.29", "unit": "ng/mL"}, {"measurement": "Cmax", "setting": "[1]; female, human, serum, po, LNG Cmax, Ritonavir arm (n=5)", "value": "9.68 ± 1.81", "unit": "ng/mL"}, {"measurement": "half-life", "setting": "[1]; [4]", "value": 46.2, "unit": "h"}, {"measurement": "increase in LNG exposure", "setting": "[1]; women on ritonavir vs control", "value": "approximately 30%"}, {"measurement": "LNG AUC", "setting": "[2]; women not taking nevirapine", "value": 114, "unit": "ng·mL/h"}, {"measurement": "LNG AUC", "setting": "[2]; women taking nevirapine", "value": 147, "unit": "ng·mL/h"}]}
{"smiles": "C#C[C@]1(O)CC[C@H]2[C@@H]3CCC4=CC(=O)CC[C@@H]4[C@H]3CC[C@@]21C", "note": "[norethindrone]", "values": [{"measurement": "decrease in norethindrone AUC", "setting": "[3]; [5]", "value": 18, "unit": "%"}, {"measurement": "increase in AUC of norethindrone", "setting": "[3]; [5]", "value": 110, "unit": "%"}, {"measurement": "increase in norethindrone AUC", "setting": "[3]; norethindrone progestin-only pill, women using ritonavir", "value": 50, "unit": "%"}]}
